Molecular target: T1, Tissue alpha-L-fucosidase (Bos taurus, UniProt Q2KIM0)
T1 sequence (Q2KIM0 whole entry): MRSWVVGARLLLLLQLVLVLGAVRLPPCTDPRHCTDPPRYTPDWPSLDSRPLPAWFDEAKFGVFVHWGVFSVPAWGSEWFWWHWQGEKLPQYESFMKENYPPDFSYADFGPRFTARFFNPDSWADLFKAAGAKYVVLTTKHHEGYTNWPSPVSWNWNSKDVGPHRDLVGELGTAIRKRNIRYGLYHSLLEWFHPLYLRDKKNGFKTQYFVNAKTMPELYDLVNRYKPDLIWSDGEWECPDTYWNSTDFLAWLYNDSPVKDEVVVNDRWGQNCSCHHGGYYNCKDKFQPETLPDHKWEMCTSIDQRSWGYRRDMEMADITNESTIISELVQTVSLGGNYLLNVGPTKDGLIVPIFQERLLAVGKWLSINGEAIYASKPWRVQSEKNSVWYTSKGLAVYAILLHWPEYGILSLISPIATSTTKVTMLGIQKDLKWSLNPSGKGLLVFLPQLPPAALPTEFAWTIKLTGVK
Test: Inhibition of bovine alpha-L-fucosidase

Row | Ki | IC50 | SMILES
1 | 13000 nM |  | C[C@H]1N[C@@H](S(=O)(=O)O)[C@H](O)[C@@H](O)[C@H]1O
2 | 3000 nM |  | C[C@H]1NC(O)[C@H](O)[C@@H](O)[C@H]1O (some centres not stated)
3 | 660000 nM |  | C[C@H]1NC[C@H](O)[C@@H](O)[C@H]1O
4 | 1 nM |  | C[C@@H]1NC(O)[C@@H](O)[C@H](O)[C@@H]1O (some centres not stated)
5 | 1 nM |  | C[C@@H]1N[C@H](S(=O)(=O)O)[C@@H](O)[C@H](O)[C@@H]1O
6 | 3 nM | 5 nM | C[C@@H]1NC[C@@H](O)[C@H](O)[C@@H]1O [DEOXYFUCONOJIRIMYCIN]
